Results on 7 molecules are retold here after PubChem BioAssay (NCI).

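A five-concentration, 48-hour dose response in 96-well plates underlies each endpoint, interpolated linearly between surrounding concentrations. GI50 = concentration required for 50% inhibition of growth. TGI marks complete inhibition of growth.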

Among the test systems are A498 renal; COLO 205 colon; HCT-15 colon; HOP-92 NSCLC; LOX IMVI melanoma; MALME-3M melanoma; NCI-H460 lung; NCI-H522 lung; OVCAR-3 ovarian; OVCAR-4 ovarian.
Common to all, as to experiment: NCI tumour cell line growth inhibition, 48 h

Consider `CNC(C)[C@H]1CCC2C3CC=C4C(=O)[C@@H](NC(=O)C=C(C)C)CC[C@]4(C)C3CC[C@@]21C` (stereo not given in full), for which the GI50 in the assay with A498 renal was 1.3 µM; in the assay on COLO 205 colon it was 1.51 µM; in the assay with HCT-15 colon it was 1.14 µM; in the assay with HOP-92 NSCLC, 0.977 µM; in the assay with LOX IMVI melanoma, 1.35 µM; in the assay with MALME-3M melanoma it was 1.64 µM. Also, the GI50 in the assay with NCI-H460 lung is 1.26 µM; in the assay on NCI-H522 lung, 2.27 µM; in the assay with OVCAR-3 ovarian it was 1.82 µM; with OVCAR-4 ovarian, 2.22 µM. Also, the TGI in the assay on A498 renal is 8.26 µM; in the assay with COLO 205 colon, 2.99 µM; with HCT-15 colon, 2.89 µM; in the assay with HOP-92 NSCLC it was 10.3 µM; with LOX IMVI melanoma, 2.98 µM; in the assay on MALME-3M melanoma, 3.47 µM. Further, the TGI in the assay on NCI-H460 lung was 2.76 µM; in the assay with NCI-H522 lung it was 7.55 µM; in the assay with OVCAR-3 ovarian, 6.04 µM; with OVCAR-4 ovarian it was 17.9 µM.

As for `CC(C)(C)c1cc(C(=O)/C=C/c2ccc(C(=O)O)cc2)cc(C(C)(C)C)c1`, the TGI amounted to 3.52 µM with A498 renal; 4.73 µM in the assay with COLO 205 colon; 4.12 µM with HCT-15 colon; 19.7 µM in the assay on HOP-92 NSCLC; 8.54 µM with LOX IMVI melanoma; 7.99 µM in the assay on MALME-3M melanoma. Further, the TGI amounted to 7.36 µM in the assay with NCI-H460 lung, 15.4 µM in the assay with NCI-H522 lung, 7.31 µM with OVCAR-3 ovarian and 19 µM with OVCAR-4 ovarian.

Regarding `CC(=O)NC1CONC1=O` (stereo not given), the TGI in the assay with A498 renal, with COLO 205 colon, with HCT-15 colon, with HOP-92 NSCLC, in the assay on LOX IMVI melanoma and in the assay with MALME-3M melanoma was above 100 µM each time. The TGI in the assay with NCI-H460 lung, with NCI-H522 lung, with OVCAR-3 ovarian and with OVCAR-4 ovarian was above 100 µM each time.

Turning to `C1=NC(N(Cc2ccccc2)Cc2ccccc2)N(Cc2ccccc2)N1` (stereo not given), the TGI worked out at 32.2 µM in the assay with A498 renal; 30.8 µM in the assay with COLO 205 colon; 34.4 µM with HCT-15 colon; 25.6 µM in the assay on HOP-92 NSCLC; 30.4 µM in the assay with LOX IMVI melanoma; 25.8 µM with MALME-3M melanoma. Further, the TGI with NCI-H460 lung was determined as 37.2 µM; with NCI-H522 lung it was 40.9 µM; in the assay on OVCAR-3 ovarian, 27.3 µM; in the assay on OVCAR-4 ovarian it was 36.7 µM.

Turning to `CN1C(NNC(=O)c2cccnc2)=NS(=O)(=O)c2cc(Cl)ccc21`, the GI50 with A498 renal, with COLO 205 colon, with HCT-15 colon, with HOP-92 NSCLC, in the assay on LOX IMVI melanoma and in the assay with MALME-3M melanoma was above 100 µM each time. For the same molecule, the GI50 in the assay on NCI-H460 lung, with NCI-H522 lung, with OVCAR-3 ovarian and in the assay with OVCAR-4 ovarian was above 100 µM throughout. Besides, the TGI with A498 renal, in the assay with COLO 205 colon, in the assay with HCT-15 colon, with HOP-92 NSCLC, in the assay with LOX IMVI melanoma and with MALME-3M melanoma was above 100 µM in each case. The TGI in the assay with NCI-H460 lung, in the assay on NCI-H522 lung, with OVCAR-3 ovarian and in the assay on OVCAR-4 ovarian was above 100 µM in each case.

`CC(Cl)CN1c2ccccc2Sc2ccc(Cl)cc21` (stereo not given): the TGI in the assay on A498 renal, with COLO 205 colon, with HCT-15 colon, in the assay with HOP-92 NSCLC, in the assay on LOX IMVI melanoma and in the assay with MALME-3M melanoma was above 10 µM each time. Moreover, the TGI in the assay on NCI-H460 lung, with NCI-H522 lung, in the assay with OVCAR-3 ovarian and in the assay with OVCAR-4 ovarian was above 10 µM in each case.

For the molecule `NCCCn1c2c(c3ccccc3c1=O)C(=O)c1ccccc1-2`, the GI50 is 0.0481 µM in the assay on A498 renal; 0.105 µM with COLO 205 colon; 0.0762 µM in the assay with HCT-15 colon; 2.6 µM with HOP-92 NSCLC; 0.0649 µM with LOX IMVI melanoma; 0.156 µM in the assay with MALME-3M melanoma. Also, the GI50 in the assay with NCI-H460 lung was 0.0647 µM; with NCI-H522 lung, 0.564 µM; in the assay with OVCAR-3 ovarian, 0.721 µM; with OVCAR-4 ovarian, 0.785 µM. In addition, the TGI worked out at 0.919 µM with A498 renal; 2.88 µM in the assay on COLO 205 colon; 1.38 µM in the assay with HCT-15 colon; 19.1 µM in the assay on HOP-92 NSCLC; 0.702 µM in the assay on LOX IMVI melanoma; 1.46 µM in the assay with MALME-3M melanoma. In addition, the TGI in the assay on NCI-H460 lung came to 9.22 µM; in the assay with NCI-H522 lung it was 13.4 µM; in the assay on OVCAR-3 ovarian, 5.25 µM; in the assay with OVCAR-4 ovarian, 9.82 µM.
